In PubChem BioAssay AID492987 (Johns Hopkins Ion Channel Center, 2010):
pIC50: −log10 of the molar value. Calls of active or inactive are those of the source.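 How the source made its calls: active means over 30% block of the TRPC6 ion channel at some tested dose, plus a fitted dose-response curve; inactive means no block at any dose, or no fitted curve.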

Target: Short transient receptor potential channel 6 (Mus musculus) (UniProt Q61143)
Test: TRPC6 inhibition potency of TRPC4 inhibitor analogs, dose response, selectivity assay for selective TRPC4 inhibitor project, HEK293 cells, membrane potential dye, IC50 (AID 492987)
Settings: for fluorescence ratio, lower = inhibition: at 20 µM (top of the series)

Chain of Short transient receptor potential channel 6 (Mus musculus) (Q61143 whole entry, looked up): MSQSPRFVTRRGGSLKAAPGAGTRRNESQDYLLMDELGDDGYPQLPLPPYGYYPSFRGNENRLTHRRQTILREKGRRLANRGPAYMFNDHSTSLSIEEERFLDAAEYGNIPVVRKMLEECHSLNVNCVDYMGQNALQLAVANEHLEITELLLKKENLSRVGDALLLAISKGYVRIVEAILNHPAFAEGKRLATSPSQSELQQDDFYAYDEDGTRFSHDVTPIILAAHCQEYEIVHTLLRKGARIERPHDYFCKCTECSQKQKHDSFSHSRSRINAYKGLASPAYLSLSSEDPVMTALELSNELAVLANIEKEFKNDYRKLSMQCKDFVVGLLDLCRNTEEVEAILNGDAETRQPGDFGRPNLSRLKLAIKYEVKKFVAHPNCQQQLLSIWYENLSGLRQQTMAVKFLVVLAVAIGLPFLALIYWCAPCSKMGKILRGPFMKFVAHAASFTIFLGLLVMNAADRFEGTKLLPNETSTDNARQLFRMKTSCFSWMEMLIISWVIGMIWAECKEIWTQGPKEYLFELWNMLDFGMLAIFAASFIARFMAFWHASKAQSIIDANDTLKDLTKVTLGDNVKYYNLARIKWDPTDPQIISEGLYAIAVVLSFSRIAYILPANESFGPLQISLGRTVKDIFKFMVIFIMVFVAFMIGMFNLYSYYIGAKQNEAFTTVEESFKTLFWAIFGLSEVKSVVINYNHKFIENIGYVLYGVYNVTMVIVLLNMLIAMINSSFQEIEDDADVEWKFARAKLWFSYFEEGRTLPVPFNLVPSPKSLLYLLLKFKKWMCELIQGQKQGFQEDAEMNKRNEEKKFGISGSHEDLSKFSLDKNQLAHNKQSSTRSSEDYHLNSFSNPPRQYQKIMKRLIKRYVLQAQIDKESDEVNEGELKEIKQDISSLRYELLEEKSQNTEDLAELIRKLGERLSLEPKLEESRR

fluorescence ratio, lower = inhibition	pIC50 (membrane potential dye fluorescence)	SMILES
inactive		c1ccc(-c2cc(N3CCCC3)nc3ccccc23)cc1
inactive		Cc1cc(N2CCN(c3ncccn3)CC2)nc2ccccc12
inactive		Cc1cc(N2CCCCCC2)nc2c(C)cccc12
inactive		Cc1cc(N2CCN(CC3CCCO3)CC2)nc2ccccc12 (stereo not given)
inactive		Cc1ccnc(N2CCCC2)n1
inactive		Cc1cc(N2CCOc3ccccc32)nc2ccccc12
inactive		Cc1cc(N2CCC(C)CC2)nc2ccccc12
inactive		Cc1cc(N(C)CCN(C)C)nc2ccccc12
inactive		Cc1cc(N2CC(C)CC(C)C2)nc2ccccc12 (stereo not given)
inactive		Cc1cc(N2CCN(c3ccccc3C#N)CC2)nc2ccccc12
inactive		COc1ccccc1N1CCN(c2cc(C)c3ccccc3n2)CC1
inactive		c1ccc(-c2cc(N3CCCCC3)nc3ccccc23)cc1

Second part, the compound before the results:

SMILES	fluorescence ratio, lower = inhibition	pIC50 (membrane potential dye fluorescence)
CCN(CC)c1cc(C)c2ccccc2n1	inactive	
FC(F)(F)c1cc(N2CCCCCC2)nc2ccccc12	inactive	
Cc1ccnc(N2CCCC2)c1	inactive	
Cc1cc(N2CCOCC2)nc2ccccc12	inactive	
COCCN(C)c1cc(C)c2ccccc2n1	inactive	
Cc1cc(N2CCCCC2)nc2ccccc12		4.75
Cc1ccnc(N2CCCCC2)c1	inactive	
Cc1ccnc(N2CCCCCC2)n1	inactive	
Cc1cc(N2CCCC(O)C2)nc2ccccc12 (stereo not given)	inactive	
Cc1ccnc(N2CCCCC2)n1	inactive	
Cc1ccnc(N2CCCCCC2)c1	inactive	
Cc1cc(N2CCCCC2)nc2c(C)cccc12	inactive	
Cc1cc(N2CCCCCC2)nc2ccc(F)cc12	inactive	
CCc1ccc2nc(N3CCCCCC3)cc(C)c2c1	inactive	
Cc1cc(N2CCN(C)CC2)nc2ccccc12	inactive	
FC(F)(F)c1cc(N2CCCCC2)nc2ccccc12	inactive	
c1ccc(-c2cc(N3CCCCCC3)nc3ccccc23)cc1	inactive	
COc1ccc(N2CCN(c3cc(C)c4ccccc4n3)CC2)cc1	inactive	
